# Assays:
# [1] = target: T1, Monoamine Oxidase A (MAO A) (Homo sapiens, UniProt P21397); assay: radioassay of […]-5-HT turnover in U251S and U251R human glioma cells; assay type: cell-based
# T1 construct: gene MAOA
# T1 sequence (P21397 1-527): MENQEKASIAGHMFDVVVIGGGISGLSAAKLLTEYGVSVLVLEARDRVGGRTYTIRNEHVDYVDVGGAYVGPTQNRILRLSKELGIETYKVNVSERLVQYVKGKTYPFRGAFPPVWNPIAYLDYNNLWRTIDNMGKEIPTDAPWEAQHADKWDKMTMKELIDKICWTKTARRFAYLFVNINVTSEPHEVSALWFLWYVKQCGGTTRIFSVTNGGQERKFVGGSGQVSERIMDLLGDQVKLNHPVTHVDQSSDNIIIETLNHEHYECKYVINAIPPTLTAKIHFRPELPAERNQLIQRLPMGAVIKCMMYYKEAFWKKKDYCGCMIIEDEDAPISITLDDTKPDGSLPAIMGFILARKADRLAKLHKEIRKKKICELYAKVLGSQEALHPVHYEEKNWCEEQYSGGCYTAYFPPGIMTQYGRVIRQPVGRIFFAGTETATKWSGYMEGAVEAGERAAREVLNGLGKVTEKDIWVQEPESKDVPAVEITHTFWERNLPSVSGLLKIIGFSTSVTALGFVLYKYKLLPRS
# [2] = target: T2, Monoamine Oxidase A (MAO A) (Mus musculus, UniProt Q64133); assay: radioassay of […]-5-HT turnover in GL26 mouse glioma cells; assay type: cell-based
# T2 construct: gene Maoa
# T2 sequence (Q64133 1-526): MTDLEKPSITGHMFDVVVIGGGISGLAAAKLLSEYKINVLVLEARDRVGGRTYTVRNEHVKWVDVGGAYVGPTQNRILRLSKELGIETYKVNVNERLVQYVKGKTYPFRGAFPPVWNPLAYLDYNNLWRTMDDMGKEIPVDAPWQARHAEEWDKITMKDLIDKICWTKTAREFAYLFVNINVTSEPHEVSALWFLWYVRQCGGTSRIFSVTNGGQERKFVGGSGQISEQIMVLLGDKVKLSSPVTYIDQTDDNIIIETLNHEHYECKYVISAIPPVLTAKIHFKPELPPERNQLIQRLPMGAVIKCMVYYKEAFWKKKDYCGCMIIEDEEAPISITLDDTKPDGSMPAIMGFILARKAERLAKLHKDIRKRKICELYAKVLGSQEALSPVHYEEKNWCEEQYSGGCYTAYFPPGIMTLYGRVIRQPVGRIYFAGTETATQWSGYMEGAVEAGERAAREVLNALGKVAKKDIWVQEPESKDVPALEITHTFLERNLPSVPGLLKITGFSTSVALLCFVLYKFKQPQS
smiles,measurement,setting,value
NCCc1c[nH]c2ccc(O)cc12 [serotonin],radioassay of 14C-5-HT turnover in U251S and U251R human glioma cells,[1],MAO A catalytic activity was determined in human and mouse glioma cell lines using serotonin as the substrate
same,radioassay of 14C-5-HT turnover in GL26 mouse glioma cells,[2],MAO A catalytic activity was determined in human and mouse glioma cell lines using serotonin as the substrate
